# In patent US12133846B2, “Electrophilic androgen receptor (AR) antagonists for AR downregulation and ferroptosis induction in cancer cells” (priority 2019, dated 2024):
# Where two headings read alike, the source gives them in different places.
# Legend:
# [1] = tested on: VCaP cells; assay: 3-79 plus BSO, MTT viability, VCaP cells; type: cell-based; conditions: for rescue of 3-79 plus BSO-induced viability loss, VCaP cells: 3-79 10 μM, BSO 100 μM, DFO 100 μM, α-Toc 100 μM, Fer-1 0.5 μM
# Method: 3-79 and BSO effectively reduce the viability of VCaP cells. […] The viability loss of VCaP cells is rescued by antioxidants and iron chelators. […] Data (n=6-8) represent mean±SD obtained from MTT assay. Statistical significance was assessed by using two-tailed Student's t-tests. ***, P<0.001.
# [2] = tested on: AR transcriptional activity in MDA-kb2 cells; assay: cells; type: cell-based; conditions: DHT 1 nM; for suppression of DHT-stimulated luciferase activity: 1-5 μM; for AR inhibition at higher concentrations relative to comparators: 2.5 and 5 μM; for inhibition at 1 µM: MDA-kb2, 1 μM compound, read-out: inhibition of DHT-stimulated luciferase activity
# Method: MDA-kb2-cell-based ARE luciferase assays were performed to assess the influence of 2-63 and related compounds on AR transcriptional activity. […] Upon androgen stimulation and addition of a luciferase substrate, […], and the intensity is proportional to the extent of AR activation. An agent that either antagonistically competes with DHT for AR binding or reduces the expression of AR diminishes luciferase activity/fluorescence signal in this experimental system. […] 10b (an alcohol) and 11 b (an azide) are synthetic precursors of the ITC hybrid 12b.
# Luciferase Assay. […] For all procedures, cells were incubated at CO2 free condition. Steady-Glo® (Promega Corp., Madison, WI) reagent was added to culture media with shaking for 10 min. Samples (100 μL) were transferred to an opaque 96-well white plate, and luminescence was measured using a luminometer.
# [3] = tested on: C4-2 cells; conditions: for potentiation by BSO compared to 2-63, C4-2 cells: drug 2.5 μM, BSO pretreatment 16 h, 24 h
# Method: (§4) Cell viability was then assessed using an MTT assay.
# (§5) PCa cells (6×10^3 cells/well) were seeded into 96-well plates overnight and then treated with indicated compounds at indicated concentrations and time durations. The MTT (3-(4, 5-Dimethylthiazol-2-yl)-2,5-diphenyltetrazolium bromide) assay was performed according to the standard protocol. Briefly, MTT (0.5 mg/mL) was incubated with cells at 37° C. for 3 hours. Supernatant was removed, followed by the addition of dimethyl DMSO (100 μl). After incubation for 30 minutes at 37° C., absorbance was read at 570 nm on a microplate reader.
# [4] = tested on: VCaP cells; assay: BSO pretreatment plus drug, MTT viability, VCaP cells; conditions: drug 2.5 μM, BSO pretreatment 16 h, 24 h
# Method: as §4, §5
# [5] = tested on: 22Rv1 cells; assay: BSO pretreatment plus drug, MTT viability, 22Rv1 cells; conditions: drug 2.5 μM, BSO pretreatment 16 h, 24 h
# Method: as §4, §5
# [6] = tested on: VCaP cells; assay: MTT viability assay, VCaP cells; type: cell-based; conditions: 72 h, full media, MTT, read-out: IC50, viability of VCaP cells
# Description: (§1) Biological Characterization. ITC-ARi hybrid drugs effectively reduce the viability of PCa cells. By using an MTT assay, it was first examined if the newly synthesized hybrid drugs affect the viability of CRPC-relevant PCa cells. PCa VCaP cells naturally express abundant wild type FL AR as well as AR splice variants (e.g., AR-V7). These cells were, therefore, used as one of the cell culture models in this work to investigate the drug-caused viability loss and AR downregulation.
# [7] = tested on: AR, AR-V7, c-Myc, HO-1, Hsp70; assay: Western blotting under BSO combination, VCaP cells; type: cell-based
# Method: (§2) It was first investigated if iron chelators or antioxidants could rescue the viability of drug combination-treated cells. […] HO-1 catalyzes the decomposition of heme into carbon monoxide, biliverdin, and Fe^2+. […] Both Fer-1 and the lipophilic antioxidant α-Toc can effectively scavenge radicals in phosphatidylcholine lipid bilayers and break the redox cycle that generates lipid hydroperoxide.
# (§3) Western Blotting. […] Proteins in cell lysates (40 μg) were separated using electrophoresis on SDS-PAGE and transferred onto PVDF (polyvinylidenedifluoride) membranes. Membranes were blocked in 5% fat-free milk followed by incubation with primary antibodies overnight at 4° C., and the secondary horseradish peroxidase-conjugated anti-rabbit or anti-mouse antibodies. The blots were developed in the Enhanced Chemiluminescence mixture and detected by ImageQuant™ LAS 4000 imaging system (GE). Density of protein bonds were calculated and analyzed by using imageJ software downloaded from the National Institute of Health website.
# [8] = tested on: C4-2 cells; conditions: 5 μM, DHT 1 nM, charcoal stripped FBS, 6 days
# Method: The medium and drug were refreshed every two days.
# The anti-PCa potential of 2-63 was further characterized by assessing its inhibitory effects on DHT-stimulated C4-2 cell growth. […] C4-2 cells were cultured in charcoal-stripped, steroid-free medium and cells were stimulated with androgen.
# [9] = tested on: VCaP cells; assay: Ferroptosis rescue/enhancement of 2-63 plus BSO, MTT, VCaP cells; type: cell-based; conditions: for rescue of 2-63 plus BSO-caused viability loss, VCaP cells: BSO 100 μM 16 h, 2-63 2.5 μM 24 h, DFO 100 μM, α-Toc 100 μM, Fer-1 0.5 μM, ZnPP 3 μM
# Description: as §2
# [10] = tested on: 22Rv1 cells; assay: Ferroptosis rescue of 2-63 plus BSO, MTT, 22Rv1 cells; type: cell-based; conditions: BSO 100 μM 16 h, 2-63 5 μM 24 h; DFO 100 μM, α-Toc 100 μM, Fer-1 0.5 μM, ZnPP 3 μM
# Description: as §2
# [11] = tested on: 22Rv1 cells; assay: MTT viability assay, 22Rv1 cells; type: cell-based; conditions: 5 μM, 72 h
# Description: as §1
# [12] = tested on: C4-2 cells; assay: MTT viability assay, C4-2 cells; type: cell-based; conditions: 5 μM, 72 h
# Description: as §1
# [13] = tested on: acetylation of α-tubulin and histone H3 (markers for HDAC6 and nuclear HDAC inhibition); assay: Western blotting of acetylation markers in VCaP cells; type: cell-based; conditions: 16 h, 2-63 and 12b 5 and 15 μM, SAHA 1 μM; for α-tubulin acetylation: SFN 15 μM
# Method: as §3
# [14] = tested on: Hsp90, Hsp70, HO-1; assay: Western blotting of Hsp90, Hsp70 and HO-1 in VCaP cells; type: cell-based; conditions: 16 h, 5 and 15 μM
# Method: as §3
molecule,measurement,setting,value
"CN(C)C/C=C/C(=O)Nc1ccc(N2C(=S)N(c3ccc(C#N)c(C(F)(F)F)c3)C(=O)C2(C)C)cc1F [3-79, (E)-N-(4-(3-(4-cyano-3-(trifluoromethyl)phenyl)-5,5-dimethyl-4-oxo-2-thioxoimidazolidin-1-yl)-2-fluorophenyl)-4-(dimethylamino)but-2-enamide]",potency of 3-79 in viability suppression with BSO,"[1]; VCaP, 3-79 10 μM plus BSO 100 μM",increased under GSH deficient conditions
"CC1(C)C(=O)N(c2ccc(C#N)c(C(F)(F)F)c2)C(=S)N1c1ccc(CCCCCCO)nc1 [10b, 4-(3-(6-(6-Hydroxyhexyl)pyridin-3-yl)-4,4-dimethyl-5-oxo-2-thioxoimidazolidin-1-yl)-2-(trifluoromethyl) benzonitrile]",suppression of DHT-stimulated luciferase activity,[2],decreased luciferase activity in a dose-dependent manner
same,AR inhibition at higher concentrations relative to comparators,[2],Enz-comparable
same,inhibition at 1 µM,[2],60%
"CC1(C)C(=O)N(c2ccc(C#N)c(C(F)(F)F)c2)C(=S)N1c1ccc(CCCCCCN=[N+]=[N-])nc1 [11b, 4-(3-(6-(6-Azidohexyl)pyridin-3-yl)-4,4-dimethyl-5-oxo-2-thioxoimidazolidin-1-yl)-2-(trifluoromethyl) benzonitrile]",suppression of DHT-stimulated luciferase activity,[2],decreased luciferase activity in a dose-dependent manner
same,AR inhibition at higher concentrations relative to comparators,[2],Enz-comparable
same,inhibition at 1 µM,[2],60%
same,"potentiation by BSO compared to 2-63, C4-2 cells",[3],more limited
same,"potentiation by BSO compared to 2-63, VCaP cells",[4],more limited
same,"potentiation by BSO compared to 2-63, 22Rv1 cells",[5],more limited
"CC1(C)C(=O)N(c2ccc(C#N)c(C(F)(F)F)c2)C(=S)N1c1ccc(CCCCN=C=S)nc1 [12a, 4-(3-(6-(4-Isothiocyanatobutyl)pyridin-3-yl)-4,4-dimethyl-5-oxo-2-thioxoimidazolidin-1-yl)-2-(trifluoromethyl) benzonitrile]",IC50,"[6]; Homo sapiens, VCaP",4.85 µM
"C[C@]12CCC(=O)C[C@@H]1CC[C@@H]1[C@@H]2CC[C@]2(C)[C@@H](O)CC[C@@H]12 [DHT, 5α-dihydrotestosterone, reference compound]",increase of luciferase activity,[2]; 24 h,8.6 fold
"CNC(=O)c1ccc(N2C(=S)N(c3ccc(C#N)c(C(F)(F)F)c3)C(=O)C2(C)C)cc1F [Enz, 4-(3-(4-cyano-3-(trifluoromethyl)phenyl)-5,5-dimethyl-4-oxo-2-thioxoimidazolidin-1-yl)-2-fluoro-N-methyl benzamide, reference compound]","expression of examined cellular markers (AR, c-Myc, HO-1)","[7]; VCaP, Enz 10 μM, with or without BSO 100 μM, except upregulating AR-V7",did not affect
same,viability reduction of DHT-stimulated C4-2 cells,[8],25%
"CCOC(=O)c1ccc(NC2CCCCC2)c(N)c1 [Fer-1, ferrostatin-1]","rescue of AR/AR-V7 under 2-63 plus BSO, VCaP cells","[7]; DFO 100 μM, Fer-1 1 μM, BSO 100 μM, 2-63 2.5 μM, 24 h",failed to rescue AR/AR-V7
same,"rescue of 2-63 plus BSO-caused viability loss, VCaP cells",[9],rescued
same,"rescue of 2-63 plus BSO-caused viability loss, 22Rv1 cells",[10],rescued
same,"rescue of 3-79 plus BSO-induced viability loss, VCaP cells",[1],rescued
"CC(=O)NC(CSC(=S)NCCc1ccccc1)C(=O)O (stereo not shown) [PEITC-NAC, reference compound]",IC50,[6],10.1 µM
same,"relative potency in viability reduction, 22Rv1 cells",[11],12b>2-63>PEITC-NAC
same,"relative potency in viability reduction, C4-2 cells",[12],12b>2-63>PEITC-NAC
same,"potentiation by BSO compared to 2-63, C4-2 cells",[3],more limited
same,"potentiation by BSO compared to 2-63, VCaP cells",[4],more limited
same,"potentiation by BSO compared to 2-63, 22Rv1 cells",[5],more limited
"O=C(CCCCCCC(=O)Nc1ccccc1)NO [SAHA, suberoylanilide hydroxamic acid, reference compound]",histone H3 acetylation,[13],induced notable global acetylation
same,α-tubulin acetylation,[13],induced notable global acetylation
"C[S+]([O-])CCCCN=C=S (stereo not shown) [SFN, sulforaphane, reference compound]",α-tubulin acetylation,[13],upregulated
same,HO-1 protein level,[14],dose-dependently upregulated
same,Hsp70 protein level,[14],significantly induced
same,Hsp90 protein level,[14],did not change
"C=CC1=C(C)c2cc3[n-]c(cc4[n-]c(cc5nc(cc1n2)C(C)=C5C=C)c(C)c4CCC(=O)O)c(CCC(=O)O)c3C.[Zn+2] [ZnPP, Zinc(II) protoporphyrin IX]","rescue of 2-63 plus BSO-caused viability loss, VCaP cells",[9],notable cytoprotective effects
same,"rescue of 2-63 plus BSO-caused viability loss, 22Rv1 cells",[10],notable cytoprotective effects
"Cc1c(C)c2c(c(C)c1O)CC[C@@](C)(CCC[C@H](C)CCC[C@H](C)CCCC(C)C)O2 [α-Toc, α-tocopherol]","rescue of 2-63 plus BSO-caused viability loss, VCaP cells",[9],rescued
same,"rescue of 2-63 plus BSO-caused viability loss, 22Rv1 cells",[10],rescued
same,"rescue of 3-79 plus BSO-induced viability loss, VCaP cells",[1],rescued
ferric ammonium citrate,"effect of exogenous iron on BSO plus 2-63 combination, VCaP cells","[9]; ferric ammonium citrate 25 μM, BSO 100 μM, 2-63 1 μM",exacerbated the lethal effect
same,"effect of exogenous iron on BSO plus 2-63 combination, C4-2 cells","[3]; ferric iron 25 μM, BSO 100 μM, 2-63 0.6-5 μM",significantly enhanced the suppressive effects
